The target in assay [1] is T1, CYP11B1 (steroid 11 β-hydroxylase) (Homo sapiens, UniProt P15538).
T1 construct: the NCI-H295R cells have CYP11B1 (steroid 11 β-hydroxylase); host or cells: NCI-H295R
T1 sequence (P15538 25-503): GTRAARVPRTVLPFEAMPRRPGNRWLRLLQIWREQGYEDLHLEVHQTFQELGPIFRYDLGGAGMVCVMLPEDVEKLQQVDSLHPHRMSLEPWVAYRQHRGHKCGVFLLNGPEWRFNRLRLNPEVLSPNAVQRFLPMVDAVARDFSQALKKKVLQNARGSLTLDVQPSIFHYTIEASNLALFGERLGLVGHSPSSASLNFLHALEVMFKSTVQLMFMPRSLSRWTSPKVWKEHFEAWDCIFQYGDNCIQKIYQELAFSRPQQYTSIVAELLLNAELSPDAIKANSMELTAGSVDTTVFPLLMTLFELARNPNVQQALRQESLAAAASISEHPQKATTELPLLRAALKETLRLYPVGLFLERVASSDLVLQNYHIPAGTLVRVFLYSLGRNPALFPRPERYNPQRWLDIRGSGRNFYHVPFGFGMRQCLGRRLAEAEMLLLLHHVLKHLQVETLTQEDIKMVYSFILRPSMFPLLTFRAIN
Briefly: Cortisol cell secretion in NCI-H295R cells (in vitro inhibitory activity for CYP11B1). Type of assay: cell-based. To be noted: NCI-H295R, compound at 1 μM. The source says:
The in vitro inhibitory activities for CYP11B1 can be determined by the following assay.
The cell line NCI-H295R was originally isolated from an adrenocortical carcinoma and has been characterized in the literature through the stimulable secretion of steroid hormones and the presence of the enzymes essential for steroidogenesis. Thus, the NCI-H295R cells have CYP11B1 (steroid 11 β-hydroxylase). The cells show the physiological property of zonally undifferentiated human fetal adrenocortical cells which, however, have the capacity to produce the steroid hormones which are formed in the three, phenotypically distinguishable zones in the adult adrenal cortex.
The NCI-H295R cells (American Type Culture Collection, ATCC, Rockville, Md., USA) are grown in Dulbeoco's Modified Eagle'Ham F-12 Medium (DME/F12), which has been supplemented with Ulroser SF Serum (Soprachem, Cergy-Saint-Christophe, France), insulin, transferrin, selenite (I-T-S, Becton Dickinson Biosiences, Franklin lakes, N.J., USA) and antibiotics in 75 cm^2 cell culture vessels at 37° C. and in a 95% air-5% carbon dioxide atmosphere. The cells are subsequently transferred for colony formation into a 24-well incubation vessel. They are cultivated there in DME/F12 medium, which is now supplemented with 0.1% bovine serum instead of Ultroser SF for 24 hours. The experiment is initiated by cultivating the cells in DME/F12 medium which is supplemented with 0.1% bovine serum albumin and test compound, in the presence or absence of cell stimulants, for 72 hours. The test substance is added in a concentration range from 0.2 nanomolar to […]. Cell stimulants which can be used are angiotensin II ([…] or 100 nanomolar), potassium ions (16 millimolar), forskolin (10 micromolar) or a combination of two stimulants.
The excretion of aldosterone, cortisol, corticosterone and estradiol/estrone into the culture medium can be detected and quantified by commercially available, specific monoclonal antibodies in radioimmunoassays in accordance with the manufacturer's instructions.
(§1) Inhibition of the release of certain steroids can be used as a measure of the respective enzyme inhibition by the added test compounds. The dose-dependent inhibition of enzymatic activity by a compound is calculated by means of an inhibition plot which is characterized by an IC50.
The inhibition activity of CYP11B1 production can also be expressed in percentage inhibition (% inhibition) at a given concentration (e.g. % inhibition at 1 μM), which is the cortisol level when cell is treated with the given concentration of a compound of the invention (e.g. concentration of 1 μM) versus the cortisol excretion when cell is free of the compound of the invention. % inhibition cortisol production=[(Y′−X′)/Y′]×100 wherein X′ is the level of cortisol when the cell is treated with a compound of Formula I; and Y′ is the level of cortisol when the cell is free of compound of Formula I.

The target in assay [2] is T2, aldosterone synthase (Homo sapiens, UniProt P19099).
T2 construct: host or cells: NCI-H295R
T2 sequence (P19099 25-503): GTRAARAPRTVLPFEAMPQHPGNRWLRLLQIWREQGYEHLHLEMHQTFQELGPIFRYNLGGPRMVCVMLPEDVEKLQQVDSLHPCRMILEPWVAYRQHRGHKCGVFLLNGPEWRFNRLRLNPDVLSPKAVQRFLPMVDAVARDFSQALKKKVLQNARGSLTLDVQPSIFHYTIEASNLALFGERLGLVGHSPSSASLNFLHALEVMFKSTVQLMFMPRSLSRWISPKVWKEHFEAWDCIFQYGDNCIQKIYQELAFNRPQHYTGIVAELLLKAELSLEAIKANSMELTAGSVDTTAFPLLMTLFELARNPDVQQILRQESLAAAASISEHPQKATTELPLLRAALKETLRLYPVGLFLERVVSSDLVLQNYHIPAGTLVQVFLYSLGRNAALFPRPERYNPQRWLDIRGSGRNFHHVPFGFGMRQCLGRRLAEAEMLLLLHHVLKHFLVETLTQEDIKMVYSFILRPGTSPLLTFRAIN
Briefly: Aldosterone cell secretion in Ang II-stimulated NCI-H295R cells (SPA with anti-aldosterone antibody). As to conditions: human adrenocortical carcinoma NCI-H295R cells, 1 μM Ang II, 24 h. Type of assay: cell-based.
Text: In particular, the aldosterone synthase inhibitory activities in vitro can be determined by the following assay.
Human adrenocortical carcinoma NCI-H295R cell line was obtained from American Type Culture Collection (Manassas, Va.). Insulin/transferrin/selenium (ITS)-A supplement (100×), DMEM/F-12, antibiotic/antimycotic (100×), and fetal bovine serum (FBS) were purchased from Invitrogen (Carlsbad, Calif.). Anti-mouse PVT scintillation proximity assay (SPA) beads and NBS 96-well plates were obtained from GE Health Sciences (Piscataway, N.J.) and Corning (Acton, Mass.), respectively. Solid black 96-well flat bottom plates were purchased from Costar (Corning, N.Y.). Aldosterone and angiotensin (Ang II) were purchased from Sigma (St. Louis, Mo.). D-[1,2,6,7-^3H(N)]aldosterone was acquired from PerkinElmer (Boston, Mass.). Nu-serum was a product of BD Biosciences (Franklin Lakes, N.J.).
On the following day, cells are rinsed with 100 μL of phosphate-buffered saline (PBS) and incubated with 100 μL of treatment medium containing 1 μM Ang II and a compound at different concentrations in quadruplicate wells at 37° C. for 24 h. At the end of incubation, 50 μL of medium is withdrawn from each well for measurement of aldosterone production by an SPA using mouse anti-aldosterone monoclonal antibodies.
Measurement of aldosterone activity can also be performed using a 96-well plate format. […] Anti-mouse PVT SPA beads (50 μL) are then added to each well and incubated overnight at room temperature prior to counting in a Microbeta plate counter. The amount of aldosterone in each sample is calculated by comparing with a standard curve generated using known quantities of the hormone.
as §1
The inhibition plot is calculated by fitting a 4-parameter logistic function to the raw data points using the least squares method. The equation of the 4-parameter logistic function is calculated as follows: Y=(d−a)/((1+(x/c)b))+a, where: a=minimum data level, b=gradient, I […], d=maximum data level, x=inhibitor concentration.

Consider `CCS(=O)(=O)NC(C)(C)c1cncc(-c2ccc(C#N)c(Cl)c2)c1` [N-(2-(5-(3-chloro-4-cyanophenyl)pyridin-3-yl)propan-2-yl)ethanesulfonamide], for which the inhibition at 1 µM in assay [1] amounted to 66%. Further, the midpoint of inhibition in assay [2], the IC50, lay at 99 nM.

For the compound `N#Cc1ccc(-c2cncc(NS(=O)(=O)Cc3ccccc3Cl)c2)cc1Cl` [N-(5-(3-chloro-4-cyanophenyl)pyridin-3-yl)-1-(2-chlorophenyl)methanesulfonamide], the inhibition at 1 µM in assay [1] turned out to be 34%. Besides, the midpoint of inhibition in assay [2], the IC50, lay at 45 nM.

With `CCS(=O)(=O)NC(c1cncc(-c2ccc(C#N)cc2F)c1)C1CC1` (stereo not drawn) [N-(5-(4-cyano-2-fluorophenyl)pyridin-3-yl)(cyclopropyl)methyl)ethanesulfonamide], in assay [1], the inhibition at 1 µM came out at 39%. Also, the 50% inhibitory concentration (IC50) in assay [2] turned out to be 167 nM.

Consider `COc1cc(-c2cncc(NS(=O)(=O)C3CC3)c2)ccc1C#N` [N-(5-(4-cyano-3-methoxyphenyl)pyridin-3-yl)cyclopropane-sulfonamide], for which the inhibition at 1 µM in assay [1] worked out at 32%. In assay [2], the IC50 was 77 nM.

Consider `CCS(=O)(=O)Nc1cncc(-c2ccc(C#N)c(OC)c2)c1` [N-(5-(4-cyano-3-methoxyphenyl)pyridin-3-yl)ethanesulfonamide], for which the inhibition at 1 µM in assay [1] came to 38%. The compound further gave an IC50 in assay [2] of 33 nM.

In the case of `CCS(=O)(=O)NC(c1ccc(F)cc1)c1cncc(-c2ccc(C#N)c(C)c2)c1` (stereo not drawn) [N-(5-(4-cyano-3-methylphenyl)pyridin-3-yl)(4-fluorophenyl)methyl)ethane-sulfonamide], in assay [1], the inhibition at 1 µM is 23%. The compound further came in with a half-inhibitory concentration (IC50) in assay [2] of 121 nM.

With `CCS(=O)(=O)NCc1cncc(-c2nc3ccc(Cl)cc3n2C)c1` [N-(5-(6-chloro-1-methyl-1H-benzo[d]imidazol-2-yl)pyridin-3-yl)methyl)ethanesulfonamide], the inhibition at 1 µM in assay [1] worked out at 24%. The same compound had an IC50 in assay [2] of 97 nM.

For the compound `CCS(=O)(=O)N(C)C(c1cncc(-c2ccc(C#N)c(Cl)c2)c1)C1CC1` (stereo not drawn) [N-((5-(3-chloro-4-cyanophenyl)pyridin-3-yl)(cyclopropyl)methyl)-N-methylethanesulfonamide], the inhibition at 1 µM in assay [1] came out at 63%. For the same compound, in assay [2], 5 nM corresponded to half-maximal inhibition (IC50).

With `CCS(=O)(=O)NC(c1cncc(-c2ccc(F)c(Cl)c2)c1)C1CC1` (stereo not drawn) [N-((5-(3-chloro-4-fluorophenyl)pyridin-3-yl)(cyclopropyl)methyl)-ethanesulfonamide], in assay [1], the inhibition at 1 µM was 21%. Moreover, the IC50 in assay [2] was 22 nM.

Turning to `CCS(=O)(=O)NC(c1cncc(-c2ccc(Cl)cc2)c1)C1CC1` (stereo not drawn) [N-((5-(4-chlorophenyl)pyridin-3-yl)(cyclopropyl)methyl)-ethanesulfonamide], the inhibition at 1 µM in assay [1] is 31%. Further, in assay [2], the IC50 is 42 nM.

As to `COc1cc(-c2cncc(CNS(C)(=O)=O)c2)ccc1C#N` [N-((5-(4-cyano-3-methoxyphenyl)pyridin-3-yl)methyl)methane-sulfonamide], in assay [1], the inhibition at 1 µM amounted to 40%. Moreover, the midpoint of inhibition in assay [2], the IC50, lay at 85 nM.

For `CCS(=O)(=O)NC(c1cncc(-c2cccc(Cl)c2Cl)c1)C1CC1` (stereo not drawn) [N-(cyclopropyl(5-(2,3-dichlorophenyl)pyridin-3-yl)methyl)ethanesulfonamide], the inhibition at 1 µM in assay [1] turned out to be 39%. The compound further came in with an IC50 in assay [2] of 5 nM.

As for `CCS(=O)(=O)NC(c1cncc(-c2ccc(OC(F)(F)F)cc2)c1)C1CC1` (stereo not drawn) [N-(cyclopropyl(5-(4-(trifluoromethoxy)phenyl)pyridin-3-yl)methyl)ethanesulfonamide], the inhibition at 1 µM in assay [1] is 20%. Inhibition in assay [2] was half-maximal at 110 nM (IC50).

For `CCc1ccc(S(=O)(=O)Nc2cncc(-c3ccc(C#N)c(Cl)c3)c2)cc1` [N-[5-(3-Chloro-4-cyano-phenyl)-pyridin-3-yl]-4-ethyl-benzene-sulfonamide], the inhibition at 1 µM in assay [1] was 78%. This compound gave an IC50 in assay [2] of 6 nM.

Turning to `COc1ccc(S(=O)(=O)Nc2cncc(-c3ccc(C#N)c(Cl)c3)c2)cc1` [N-[5-(3-Chloro-4-cyano-phenyl)-pyridin-3-yl]-4-methoxy-benzene-sulfonamide], in assay [1], the inhibition at 1 µM stood at 74.5%. The compound further returned an IC50 in assay [2] of 9 nM.

A word on the inhibition: it is the drop in the measured response relative to a control, in per cent. Usually IC50 stands for the concentration at which inhibition is half-maximal. High values mean weaker potency in that assay, low ones greater potency in that assay.

(Values after patent US8809545B2, “Aryl pyridine as aldosterone synthase inhibitors” (Novartis AG, priority 2009, dated 2014).)
